Common to all, as to test: biochemical
What all share (set-up): KINOMEscan competition binding panel (Eurofins DiscoverX), single concentration, % inhibition
Common to all, as to details: read-out: 7 at 1 µM % inhibition

One assay deals with FLT3(D835V) (Homo sapiens, UniProt P36888, D835V). Here is the method: (§1) KinomeScan® Assay on 7 and 15 was performed as previously described by EuroFins DiscoverX [24]. GSK114 (7) and 15 were submitted for a KINOMEscan® assay to explore the selectivity profile across >400 human kinases at a compound concentration of 1 µM. […] GSK114 (7) is a narrow-spectrum TNNi3K inhibitor but has some potent off-targets including GAK which has been previously reported for this chemotype. […] If utilized together this set of compounds could be useful to investigate TNNi3K biology.

The target in a further assay is PRKCH (Homo sapiens, UniProt P24723). The procedure: as §1
In assay [1] the target is T1, RPS6KA5(Kin.Dom.2-C-terminal) (Homo sapiens, UniProt O75582).
T1 construct: Kin.Dom.2-C-terminal
Here is the method:
as §1

For a further assay, the target named is EGFR(L858R) (Homo sapiens, UniProt P00533, L858R). The procedure:
as §1

For the next assay, the target named is PHKG2 (Homo sapiens, UniProt P15735). The procedure:
as §1

In the next assay the target is T2, NDR1 (Homo sapiens, UniProt Q15208).
T2 construct: gene STK38
The procedure: as §1

The target of assay [2] is T3, RPS6KA5(Kin.Dom.1-N-terminal) (Homo sapiens, UniProt O75582).
T3 construct: Kin.Dom.1-N-terminal
Here is the method:
as §1

A further assay addresses T4, ERK1 (Homo sapiens, UniProt P27361).
T4 construct: gene MAPK3
The procedure:
as §1

The next assay has as its target FLT3 (Homo sapiens, UniProt P36888). The procedure:
as §1

Another assay concerns the target PIK3CD (Homo sapiens, UniProt O00329). Here is the method: as §1
For another assay, the target named is SBK1 (Homo sapiens, UniProt Q52WX2). The procedure: as §1
The target in a further assay is PIK3CB (Homo sapiens, UniProt P42338). The procedure:
as §1

Another assay concerns the target ULK2 (Homo sapiens, UniProt Q8IYT8). The procedure: as §1
The target of another assay is STK35 (Homo sapiens, UniProt Q8TDR2). The procedure: as §1
A further assay concerns the target T5, PIK4CB (Homo sapiens, UniProt Q9UBF8).
T5 construct: gene PI4KB
The procedure: as §1

A further assay deals with TEC (Homo sapiens, UniProt P42680). The procedure:
as §1

The target in a further assay is T6, p38-gamma (Homo sapiens, UniProt P53778).
T6 construct: gene MAPK12
Here is the method:
as §1

The target of a further assay is HCK (Homo sapiens, UniProt P08631). The procedure:
as §1

In the next assay the target is MYO3B (Homo sapiens, UniProt Q8WXR4). Here is the method: as §1
The target in assay [3] is T7, ABL1(H396P)-phosphorylated (Homo sapiens, UniProt P00519, H396P).
T7 construct: phosphorylated
The procedure: as §1

The next assay concerns the target TSSK1B (Homo sapiens, UniProt Q9BXA7). Here is the method: as §1
For another assay, the target named is PLK3 (Homo sapiens, UniProt Q9H4B4). The procedure:
as §1

The target in another assay is AAK1 (Homo sapiens, UniProt Q2M2I8). The procedure: as §1
Another assay addresses T8, OSR1 (Homo sapiens, UniProt O95747).
T8 construct: gene OXSR1
The procedure: as §1

The term inhibition denotes the relative decrease from the control value, in per cent.

The structures appear in SMILES notation.

Sequence of PRKCH (P24723 whole entry): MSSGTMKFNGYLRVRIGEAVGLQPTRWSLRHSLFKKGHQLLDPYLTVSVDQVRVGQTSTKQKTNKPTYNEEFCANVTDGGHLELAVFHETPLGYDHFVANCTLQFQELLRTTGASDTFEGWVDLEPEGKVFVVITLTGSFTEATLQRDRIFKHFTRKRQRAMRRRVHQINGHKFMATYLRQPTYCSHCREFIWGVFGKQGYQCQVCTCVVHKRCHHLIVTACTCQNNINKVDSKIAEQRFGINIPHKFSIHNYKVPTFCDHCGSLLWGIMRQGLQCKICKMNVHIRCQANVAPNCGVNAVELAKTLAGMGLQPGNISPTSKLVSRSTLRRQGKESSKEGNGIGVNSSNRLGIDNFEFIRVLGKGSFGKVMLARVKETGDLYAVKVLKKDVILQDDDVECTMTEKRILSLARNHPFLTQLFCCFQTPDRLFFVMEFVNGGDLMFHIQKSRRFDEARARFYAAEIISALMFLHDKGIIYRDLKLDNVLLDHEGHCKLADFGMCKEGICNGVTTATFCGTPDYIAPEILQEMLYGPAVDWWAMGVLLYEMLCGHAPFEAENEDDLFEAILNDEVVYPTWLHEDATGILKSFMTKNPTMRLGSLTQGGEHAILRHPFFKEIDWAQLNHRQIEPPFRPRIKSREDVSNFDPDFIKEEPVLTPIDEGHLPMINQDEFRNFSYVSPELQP
Sequence of PIK3CD (O00329 whole entry): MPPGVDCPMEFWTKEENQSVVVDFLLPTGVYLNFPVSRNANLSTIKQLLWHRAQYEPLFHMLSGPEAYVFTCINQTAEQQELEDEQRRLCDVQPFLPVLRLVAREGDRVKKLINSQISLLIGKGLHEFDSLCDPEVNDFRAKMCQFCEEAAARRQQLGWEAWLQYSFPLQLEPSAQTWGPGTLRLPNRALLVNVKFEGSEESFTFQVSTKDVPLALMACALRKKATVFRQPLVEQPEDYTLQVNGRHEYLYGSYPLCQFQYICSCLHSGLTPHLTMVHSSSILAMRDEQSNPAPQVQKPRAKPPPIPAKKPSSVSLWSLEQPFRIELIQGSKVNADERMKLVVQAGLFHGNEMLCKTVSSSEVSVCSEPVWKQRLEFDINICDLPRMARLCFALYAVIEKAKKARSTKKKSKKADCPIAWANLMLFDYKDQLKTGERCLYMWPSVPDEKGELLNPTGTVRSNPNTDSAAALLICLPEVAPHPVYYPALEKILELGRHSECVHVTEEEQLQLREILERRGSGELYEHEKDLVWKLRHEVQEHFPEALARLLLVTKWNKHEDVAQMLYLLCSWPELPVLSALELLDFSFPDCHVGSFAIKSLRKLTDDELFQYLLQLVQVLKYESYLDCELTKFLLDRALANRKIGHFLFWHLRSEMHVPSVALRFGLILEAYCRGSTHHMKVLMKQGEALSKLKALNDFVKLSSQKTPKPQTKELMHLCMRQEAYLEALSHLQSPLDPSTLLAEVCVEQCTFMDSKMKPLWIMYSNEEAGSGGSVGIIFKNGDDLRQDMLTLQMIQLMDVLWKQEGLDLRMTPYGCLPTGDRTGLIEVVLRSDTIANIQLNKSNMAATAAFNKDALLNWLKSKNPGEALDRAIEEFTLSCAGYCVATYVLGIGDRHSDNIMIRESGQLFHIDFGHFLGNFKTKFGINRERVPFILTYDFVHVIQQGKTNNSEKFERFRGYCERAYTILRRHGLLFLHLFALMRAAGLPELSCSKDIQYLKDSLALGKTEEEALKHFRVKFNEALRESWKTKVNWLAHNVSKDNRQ
Sequence of TSSK1B (Q9BXA7 whole entry): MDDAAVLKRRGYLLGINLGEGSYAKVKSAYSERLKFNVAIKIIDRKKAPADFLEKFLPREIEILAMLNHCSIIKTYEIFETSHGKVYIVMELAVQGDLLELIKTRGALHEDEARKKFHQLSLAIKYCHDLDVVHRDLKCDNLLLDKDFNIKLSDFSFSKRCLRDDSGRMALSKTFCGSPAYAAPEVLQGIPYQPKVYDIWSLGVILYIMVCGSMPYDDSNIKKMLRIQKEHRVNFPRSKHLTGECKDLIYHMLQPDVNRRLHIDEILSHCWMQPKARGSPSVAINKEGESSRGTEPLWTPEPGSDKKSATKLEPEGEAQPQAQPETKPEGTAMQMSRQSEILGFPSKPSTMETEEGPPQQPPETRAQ
T1 sequence (O75582 whole entry): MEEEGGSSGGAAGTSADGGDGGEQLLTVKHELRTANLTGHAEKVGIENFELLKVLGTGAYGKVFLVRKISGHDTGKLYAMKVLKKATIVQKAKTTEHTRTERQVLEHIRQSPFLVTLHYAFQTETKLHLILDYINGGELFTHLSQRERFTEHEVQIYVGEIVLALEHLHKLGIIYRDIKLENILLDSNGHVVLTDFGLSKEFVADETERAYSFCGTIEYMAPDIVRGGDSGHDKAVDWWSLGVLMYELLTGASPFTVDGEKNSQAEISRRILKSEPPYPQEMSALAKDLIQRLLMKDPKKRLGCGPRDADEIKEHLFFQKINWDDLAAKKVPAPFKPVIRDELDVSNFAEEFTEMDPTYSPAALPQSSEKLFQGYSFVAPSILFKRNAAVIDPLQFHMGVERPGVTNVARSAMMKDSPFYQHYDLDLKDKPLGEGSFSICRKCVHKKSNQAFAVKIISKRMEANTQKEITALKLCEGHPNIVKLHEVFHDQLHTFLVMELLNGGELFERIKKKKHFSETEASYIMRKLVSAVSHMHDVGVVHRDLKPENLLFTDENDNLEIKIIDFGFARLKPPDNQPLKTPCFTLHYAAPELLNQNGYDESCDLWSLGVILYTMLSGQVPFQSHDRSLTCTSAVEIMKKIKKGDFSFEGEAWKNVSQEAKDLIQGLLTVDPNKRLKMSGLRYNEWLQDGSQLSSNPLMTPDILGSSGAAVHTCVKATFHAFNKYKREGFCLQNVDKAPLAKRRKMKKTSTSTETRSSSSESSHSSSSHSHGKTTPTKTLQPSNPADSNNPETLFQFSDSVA
T3 sequence (O75582 whole entry): as above
Sequence of STK35 (Q8TDR2 whole entry): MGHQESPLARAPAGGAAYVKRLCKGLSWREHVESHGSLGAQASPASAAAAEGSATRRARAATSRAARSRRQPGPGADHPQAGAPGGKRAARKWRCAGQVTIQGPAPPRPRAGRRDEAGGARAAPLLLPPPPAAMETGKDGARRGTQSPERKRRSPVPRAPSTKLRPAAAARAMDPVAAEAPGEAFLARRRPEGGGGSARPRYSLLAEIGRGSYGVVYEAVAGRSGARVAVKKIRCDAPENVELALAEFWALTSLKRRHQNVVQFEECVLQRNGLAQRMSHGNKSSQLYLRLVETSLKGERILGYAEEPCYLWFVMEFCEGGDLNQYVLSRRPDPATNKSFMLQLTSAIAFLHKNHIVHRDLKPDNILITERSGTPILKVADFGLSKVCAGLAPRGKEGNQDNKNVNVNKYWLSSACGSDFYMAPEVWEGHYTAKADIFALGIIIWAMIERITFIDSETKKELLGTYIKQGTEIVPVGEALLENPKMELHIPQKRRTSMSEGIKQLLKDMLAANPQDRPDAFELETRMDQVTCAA
T2 sequence (Q15208 whole entry): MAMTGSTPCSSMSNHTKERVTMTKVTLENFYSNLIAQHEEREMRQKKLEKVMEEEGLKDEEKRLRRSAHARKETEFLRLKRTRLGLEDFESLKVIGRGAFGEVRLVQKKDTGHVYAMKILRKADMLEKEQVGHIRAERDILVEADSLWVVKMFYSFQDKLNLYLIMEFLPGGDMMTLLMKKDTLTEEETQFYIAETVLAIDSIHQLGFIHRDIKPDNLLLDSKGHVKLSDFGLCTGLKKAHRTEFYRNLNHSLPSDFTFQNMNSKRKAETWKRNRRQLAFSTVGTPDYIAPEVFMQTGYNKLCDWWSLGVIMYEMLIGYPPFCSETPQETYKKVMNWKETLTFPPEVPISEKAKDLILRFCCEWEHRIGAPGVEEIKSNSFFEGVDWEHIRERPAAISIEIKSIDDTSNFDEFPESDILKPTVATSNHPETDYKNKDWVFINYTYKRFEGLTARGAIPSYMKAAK
T6 sequence (P53778 whole entry): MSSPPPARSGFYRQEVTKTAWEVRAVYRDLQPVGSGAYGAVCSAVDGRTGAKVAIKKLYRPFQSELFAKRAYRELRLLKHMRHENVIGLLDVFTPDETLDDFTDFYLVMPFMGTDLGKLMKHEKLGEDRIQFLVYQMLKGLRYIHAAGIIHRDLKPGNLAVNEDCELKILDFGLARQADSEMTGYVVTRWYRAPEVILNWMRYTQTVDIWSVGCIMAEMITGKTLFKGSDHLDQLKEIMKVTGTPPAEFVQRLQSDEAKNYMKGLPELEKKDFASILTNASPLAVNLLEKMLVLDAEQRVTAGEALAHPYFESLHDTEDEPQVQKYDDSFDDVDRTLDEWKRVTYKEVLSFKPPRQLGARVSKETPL
Sequence of HCK (P08631 whole entry): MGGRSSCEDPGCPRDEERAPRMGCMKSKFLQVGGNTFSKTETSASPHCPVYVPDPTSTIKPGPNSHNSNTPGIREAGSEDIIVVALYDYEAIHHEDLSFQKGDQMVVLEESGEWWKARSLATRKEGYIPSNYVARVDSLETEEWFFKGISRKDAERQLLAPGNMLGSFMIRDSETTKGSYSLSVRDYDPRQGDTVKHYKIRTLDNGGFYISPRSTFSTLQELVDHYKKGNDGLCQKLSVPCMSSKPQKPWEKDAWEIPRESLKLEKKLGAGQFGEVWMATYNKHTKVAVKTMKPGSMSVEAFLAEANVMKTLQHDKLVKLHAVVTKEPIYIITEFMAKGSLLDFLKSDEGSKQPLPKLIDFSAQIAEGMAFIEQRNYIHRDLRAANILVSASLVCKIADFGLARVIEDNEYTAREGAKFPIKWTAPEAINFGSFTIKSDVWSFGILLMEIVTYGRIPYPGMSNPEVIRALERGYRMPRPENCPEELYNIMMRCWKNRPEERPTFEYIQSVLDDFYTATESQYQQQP

As to `CNS(=O)(=O)c1ccc(N(C)C)c(Nc2ncnc3cc(OC)c(OC)cc23)c1` [compound 7, 3-((6,7-dimethoxyquinazolin-4-yl)amino)-4-(dimethylamino)-N-methylbenzenesulfonamide], the inhibition at 1 µM at FLT3(D835V) was 91.8%; on PRKCH, 13%; in [1], 0%; at EGFR(L858R), 8%; at PHKG2, 0%; at NDR1 it was 0%. The inhibition at 1 µM in assay [2] was determined as 7%; on ERK1, 0%; on FLT3 it was 7%; at PIK3CD, 61%; on SBK1, 29%; on PIK3CB it was 2%. Also, the inhibition at 1 µM stood at 19% on ULK2; 0% on STK35; 14% on PIK4CB; 0% on TEC; 0% on p38-gamma; 11% on HCK. The inhibition at 1 µM stood at 0% on MYO3B; 34% in [3]; 0% at TSSK1B; 0% on PLK3; 0% on AAK1; 22% at OSR1.

The record behind these values is article PMC7180948, “New Insights into 4-Anilinoquinazolines as Inhibitors of Cardiac Troponin I–Interacting Kinase (TNNi3K)” (Molecules, 2020).
